4 compounds from US7217739B2, “Method for inducing cell death with carbonyl scavengers” (Arizona Board of Regents on behalf of the University of …, priority 2004, dated 2007) can be followed below.

In data set [1] the test system is A375 melanoma cells in collagen matrix. Description: Dermal melanoma reconstruct, melanoma cells. Type of data set: cell-based, human. Particulars: 12.5 mM; A375 and CF3 cells embedded in a collagen matrix. The text has this:
(§1) A dermal melanoma reconstruct was made, where both CF3 fibroblast and A375 melanoma cells were embedded in a collagen matrix. Seventy two hours after “seeding” in the matrix, the melanoma cells have proliferated extensively, as the controls show, in FIG. 7.

Data set [2] has as its system premalignant, immortalized human keratinocytes HaCaT. Description: Apoptosis in premalignant immortalized keratinocytes. Type of data set: cell-based. The note with it: HaCaT cells; 12.5 mM; continuous over 24 hours. How it is done:
In these experiments, D-penicillamine was added, at a concentration of 12.5 mM, to premalignant, immortalized human keratinocytes, or “HaCaT” cells, and the exposure was Continuous over 24 hours.

Data set [3] has as its system human melanoma cell line G-361. Description: Apoptosis by annexin V-FITC/propidium iodide flow cytometry, G-361 melanoma. Type of data set: cell-based. Particulars: G-361 cells. The method, then:
(§2) The murine melanoma cell line B16 was used, as were three human melanoma lines, i.e., G-361, A-375, and LOX. Samples of the cells were exposed to 10 mM of D-penicillamine continuously, over a 24 hour period. Apoptosis was measured using a standard assay, i.e., flow cytometric staining using annexin V-FITC/propidium iodide. As a control, normal human skin fibroblasts, i.e., “CF3” cells, were used.
The compound D-penicillamine (D-P), aminoguanidine (AG), N-acetyl-D-penicillamine (NAP), N-acetyl-L-cysteine (NAC), and penicillamine disulfide (PSS) were tested. D-P, NAC and NAP are known as antioxidants. D-P and aminoguanidine are known as carbonyl scavengers.
Background: In flow cytometry, cells or beads pass a laser one at a time.

The subject of data set [4] is Human HeLa cervical adenocarcinoma cells. Description: Apoptosis in HeLa cervical adenocarcinoma cells. It counts as cell-based. The method, then: The efficacy of the compounds on other cancers, epithelial cancers in particular, was determined. Human HeLa cervical adenocarcinoma cells were used, and tested with D-penicillamine, at 10 mM, and aminoguanidine, at 25 mM.

Data set [5] has as its system murine melanoma cell line B16. Description: Apoptosis by annexin V-FITC/propidium iodide flow cytometry, B16 melanoma. It counts as cell-based. The note with it: B16 cells; continuous 24 hour exposure; D-penicillamine 10 mM. The method, then: as §2
The next data set has as its system human A431 cells. In words: Apoptosis in squamous cell carcinoma line A431. Particulars: 10 mM, 24 hours. Type of data set: cell-based. How it is done:
In each case, 10 mM of the test compound was used, over 24 hours, on human A431 cells, and apoptosis was measured as described, supra.

Data set [6] relates to human melanoma line A-375. Description: Apoptosis by annexin V-FITC/propidium iodide flow cytometry, A-375 melanoma. It counts as cell-based. How it is done:
as §2
(§3) Malignant human melanoma cells A375, and normal fibroblasts (CF3), were tested, using 10 mM of MEC, with 24 hours of exposure.

Another data set relates to human melanoma line LOX. In words: Apoptosis by annexin V-FITC/propidium iodide flow cytometry, LOX melanoma. It counts as cell-based. The note with it: LOX cells; continuous 24 hour exposure; D-penicillamine 10 mM. How it is done: as §2
The subject of data set [7] is normal human skin fibroblasts CF3. In words: Apoptosis by annexin V-FITC/propidium iodide flow cytometry, normal CF3 fibroblasts. Type of data set: cell-based. The method, then: as §2, §3
The test system of data set [8] is CF3 fibroblast in collagen matrix. Description: Dermal melanoma reconstruct, fibroblast network. The note with it: 12.5 mM; A375 and CF3 cells embedded in a collagen matrix. It counts as cell-based, human.
Source text: as §1

Setting [9] is: Example 6, concentration not given.

Take `CC(C)(S)[C@@H](N)C(=O)O` [D-penicillamine, 3-mercapto-D-valine]: in data set [1], the “elimination of melanoma cells from dermal melanoma reconstruct” value is “eliminated the melanoma cells”. The induction of apoptosis entry in data set [2] is “apoptosis is indicated”; in data set [3] (setting [9]) it was “induced apoptosis”; in data set [3] (continuous 24 hour exposure, D-penicillamine 10 mM), “apoptosis was induced”; in data set [4] (10 mM), “apoptosis inducers”; in data set [5], “apoptosis was induced”; in the data set on human A431 cells it was “induction of apoptosis”. The induction of apoptosis result in data set [6] (A-375 cells, continuous 24 hour exposure, D-penicillamine 10 mM) is listed as “apoptosis was induced”; in the data set with human melanoma line LOX it was “apoptosis was induced”; in [7] (normal CF3 cells, continuous 24 hour exposure, D-penicillamine 10 mM) it was “no change”. In addition, the “structure integrity of the fibroblast collagen network” value in data set [8] is reported as “maintained the structure integrity of the fibroblast collagen network”.
For the compound `COC(=O)[C@H](N)C(C)(C)S` [D-penicillamine methyl ester], the values for the induction of apoptosis result in the data set with human A431 cells and in the data set with human A431 cells (listed as D-P—OCH3) were “induction of apoptosis” and “stronger apoptotic effect”, respectively.
With `N=C(N)NN` [aminoguanidine], the induction of apoptosis entry in data set [3] (setting [9]) is recorded as “induced apoptosis”; in data set [4] (25 mM), “apoptosis inducers”.
With `CCC(C)(S)[C@H](N)C(=O)O` (stereo partly drawn) [MEC, 3-methyl-3-ethyl-L-cysteine], the induction of apoptosis result in data set [6] (A375 cells, 10 mM of MEC, 24 hours of exposure) is on record as “Pronounced induction of apoptosis”; in data set [7] (normal CF3 fibroblasts, 10 mM of MEC, 24 hours of exposure), “none was observed”.
